Laboratory results: patent US20180200172A1, “REAGENTS AND METHODS FOR WHITENING TEETH” (UNIVERSITY OF WASHINGTON THROUGH ITS CENTER FOR …, priority 2015, published 2018)

Assays:
[1] = Kinetic profile of mineral formation; conditions: fast = immediate mineral formation; slow = about 5 minutes to about 1 hour
Procedure: Fast kinetics refers to fast mineral formation, such as immediate mineral formation, while slow mineral formation refers to mineral formation over a period of time, such as about 5 minutes to about 1 hour. In some embodiments, a first biomineralizing peptide having faster kinetics can be used in combination with a second biomineralizing peptide having slower kinetics.

[2] = In vitro re-mineralization of tea-stained human tooth with peptide solution; line profile analysis (Mean Pixel Intensity, ImageJ)
Procedure: A caries-free human tooth was sterilized in 1% bleach solution for 24 hours then removed and vigorously rinsed with deionized water. The root site was removed and the crown sectioned vertically using a diamond blade. Pictures were taken with a camera attached to an optical microscope.
The exposed dentine sites were etched with 35% phosphoric acid (Ultraetch™) for 60 seconds (to facilitate the stain intake). The etching gel was removed by rinsing the sample with distilled water for 3 minutes. The staining solution was prepared by boiling 2 g of tea in 100 ml of deionized water for 5 minutes, which was then cooled down to room temperature and filtered. The tooth was soaked in the staining solution and incubated at 37° C. at 150 rpm for 24 hours. The tooth was then removed from the staining solution and sonicated for 30 seconds in deionized water (sonic bath) to remove the excess amount of tea particles attached to tooth extrinsically. The sectioned tooth was cut vertically in half again to form two quarter sections of the tooth. FIGS. 2(a) to 2(g) show various sections of the tooth after the staining. […] Figures (b), (c) and (d) show different views of the left quarter of the tooth that was sectioned from the tooth. Figures (e), (f) and (g) show different views of the right quarter of the tooth that was sectioned from the tooth. As can be observed from FIGS. 2(a) to 2(g), brown stains from the staining solution were formed on the surface and below the surface of the tooth. The left quarter of the tooth was stored in 24 mM Tris Buffer (pH: 7.4) for control and the right quarter of the tooth (test tooth) was used for in vitro re-mineralization. The test tooth was submerged into peptide solution (600 μl) containing a mineralization polypeptide in a 48 well plate and incubated for 10 minutes at 37° C. After incubation, the tooth was removed and placed into to a new well. A mineralization solution of 400 μl of 9.6 mM CaCl2 and 400 μl of 5.6 mM KH2PO4 was added and quickly mixed by pipetting the solution up and down. […]

[3] = Solution mineralization approach on tetracycline-stained human teeth; line profile analysis (Mean Pixel Intensity); conditions: for Mean Pixel Intensity: shADP5 0.8 mM, tetracycline-stained
Source text: Human teeth, donated by the University of Washington School of Dentistry (Seattle, Wash., USA), were selected for their clean, smooth surfaces. The teeth were sterilized in bleach, cut on a diamond blade to remove the root, and halved. A thin layer of the enamel surface was then cut on one of the halves parallel to the previous cut, such that the dentin layer could be seen without completely removing the enamel on the tooth. This allowed imaging of the enamel surfaces after the mineralization experiment without the problem of surface reflection encountered in previous experiments, in addition to a more parallel surface from which to compare the brightness or whiteness results. The cut enamel side of the tooth sample was then sonicated in DI water and polished on diamond slurry smooth out the surface for imaging. The sample was then cut into quarters, with the lower half selected for a tetracycline experiment because of the even distribution of dentin coloring in the lower quarters of the tooth sample. The samples were then stained in 10 mg/mL tetracycline solution for five days.
During mineralization, using a 96-well plate, one of the stained halves was stored in 1200 μL Tris (24 mM) as a negative control, and the experimental sample was incubated in 150 μL shADP5 (0.8 mM) at 37° C. for 10 minutes. The experimental sample was then rinsed of excess peptide with deionized water and then stored in 600 μL CaCl2 (9.6 mM), to which 600 μL monobasic KH2PO4 (5.76 mM) was added. The well plate containing both the control and experimental samples was then stored at 37° C. for about 24 hours for mineralization to occur on the treated stained tooth sample.
[…] After 27 rounds of mineralization on the experimental sample, the tooth was inspected for changes in brightness qualitatively. The stained negative control was polished to expose the original enamel stain in order to compare the whitening effect of the peptide mineralization.

[4] = In vitro re-mineralization of tea-stained rat tooth with peptide solution; conditions: peptide 10 min 37° C., then CaCl2/KH2PO4 16 hours 37° C., control in Tris buffer
Procedure: Rat teeth (molars) were obtained from sacrificed rats (for example, Sprague Dawley rats, age 3 weeks or older) from animal facility, collected, and stored in 100% alcohol. Prior to the re-mineralization experiments the teeth were stored in 1% bleach for 24 hours. […] The teeth were then dried in an incubator in air at 37° C. for 3-6 hours to produce dry surface. The root site and section the crown were removed vertically using a diamond blade. Pictures were taken with camera attached to optical microscope. Exposed dentine sites in the one half of the sectioned tooth were etched with 35% phosphoric acid (Ultraetch™) for 60 seconds (to facilitate the stain intake). The etching gel was removed by rinsing the sample with distilled water for 3 minutes. The staining solution was prepared by boiling 2 g of tea in 100 ml of deionized water for 5 minutes, and then cooled down to room temperature and filtered. The tooth sample was soaked in the staining solution and incubated at 37° C. at 150 rpm for 24 hours. The tooth was removed from the staining solution and sonicated for 30 seconds in deionized water (sonic bath) to remove the excess amount of tea particles attached to tooth extrinsically. The one half of the sectioned tooth was cut vertically into half again to form two quarter sections of the tooth. A second set of pictures were taken with camera attached to optical microscope. […]

[5] = Solution mineralization approach, 25 rounds, colour measured with Minolta Chroma Meter CR-200; conditions: unstained sectioned human tooth, peptide 10 minutes, calcium/phosphate ions 2 hours 37° C.
Source text: The root site of an extracted human tooth was removed and the crown portion of the tooth was sectioned vertically into half. A thin layer of enamel was removed from one half of the sectioned tooth such that the dentin layer is exposed without completely removing the enamel on the tooth. This allowed imaging of the enamel surfaces after the mineralization experiment without the problem of surface reflection, and provides a more parallel surface from which to compare the whiteness results. The sectioned tooth was fixed onto a glass slide with epoxy. Initial color measurements of each of the four sides of the sectioned tooth was obtained using a Minolta Chroma Meter CR-200 (Konica Minolta, Tokyo, Japan), according to manufacturer instructions, using a white background and a black background. The sectioned tooth was incubated in a mineralization polypeptide solution for 10 minutes at 37° C. and then in a solution with calcium ions and phosphate ions for 2 hours at 37° C. Color measurements of each of the four sides of the sample were taken as described initially. The sectioned was rinsed with deionized water and the remineralization process (incubation in polypeptide solution, incubation in solution of ion sources, and rinsing with deionized water) was repeated for a total of 25 rounds. The mineralization polypeptide was SYENSHSQAINVDRT (shADP5; SEQ ID NO:16).

Row | Substance | kinetic profile (mineral formation) [1] | Mean Pixel Intensity ([2]; Whitened (stained and remineralized), 0 = completely black, 100 = completely white, Bar C in FIG. 4) | whiteness versus original tooth and stained tooth ([2]; after staining and remineralization, from MPI in FIG. 4) | colour of treated tooth quarter versus control ([2]; tea-stained human tooth, peptide 10 minutes 37° C., then CaCl2/KH2PO4 16 hours 37° C., control in Tris buffer) | Mean Pixel Intensity ([3]; After 3 rounds of remineralization, Bar B in FIG. 6) | Mean Pixel Intensity ([3]; After 4 rounds of remineralization, Bar C in FIG. 6) | Mean Pixel Intensity ([3]; After 5 rounds of remineralization, Bar D in FIG. 6) | Mean Pixel Intensity ([3]; After 7 rounds of remineralization, Bar E in FIG. 6) | whiteness of the stained tooth ([3]; repeated rounds of remineralization (3 to 7 rounds)) | colour of treated tooth quarter versus control [4] | whiteness of the tooth enamel [5]
1 | (HPP(S/T)HTLQPHHH(L/I)PVVPAQQPV (A/I)PQQPMMPVPG(H/Q)HSMTP(T/I)QH)1-10 [ADP7] | slow kinetic profile | – | – | – | – | – | – | – | – | – | –
2 | (PGYIN(L/F)SYE(K/N)SHSQAIN(T/V)DRTA)1-10 [ADP5] | fast kinetic profile | – | – | – | – | – | – | – | – | – | –
3 | SYENSHSQAINVDRT [shADP5, shortened amelogenin derived polypeptide ADP5] | – | 96.21 ± 2.39 | improved whiteness over the original tooth and the stained tooth | lighter in color than the left quarter (control) | 69.47 ± 2.96 | 70.11 ± 2.92 | 70.79 ± 1.96 | 74.47 ± 2.13 | whiteness of the stained tooth improves with repeated rounds of remineralization | lighter in color than the control | whiteness of the tooth enamel improved with each round of remineralization
